Reference: patent US12655116B2, “Substituted isophthalic acid diamides” (Bayer Aktiengesellschaft, priority 2020, dated 2026)

What was measured:
PHBPU = assay: Post-emergence herbicidal action against PHBPU; type: in vivo, Pharbitis purpurea; settings: dosage 20 g/ha
How it was run: (§1)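 Herbicidal effect was scored visually in percent after about 3 weeks in the greenhouse. Plants had been raised in sandy loam and treated post-emergence at the one-leaf stage with formulated compound at 600 to 800 l/ha water plus 0.2% wetting agent.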

MATIN [1] = assay: Pre-emergence herbicidal action against MATIN; type: in vivo, Matricaria inodora
How it was run: (§2)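 Herbicidal effect was assessed 3 weeks after treatment by visual comparison with untreated controls, 100% denoting dead plants. Aqueous WP or EC preparations had been applied at 600 to 800 l/ha with 0.2% wetting agent to the soil covering freshly sown seeds.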

VERPE [2] = assay: Post-emergence herbicidal action against VERPE; type: in vivo, Veronica persica; settings: 20 g/ha
How it was run: as §1

POLCO = assay: Pre-emergence herbicidal action against POLCO; type: in vivo, Polygonum convolvulus
Source text: Seeds of monocotyledonous and dicotyledonous weed plants and crop plants are laid out in sandy loam soil in wood-fiber pots and covered with soil. The compounds of the invention, formulated in the form of wettable powders (WP) or as emulsion concentrates (EC), are then applied to the surface of the covering soil in the form of an aqueous suspension or emulsion at a water application rate equivalent to 600 to 800 l/ha, with addition of 0.2% wetting agent. After the treatment, the pots are placed in a greenhouse and kept under good growth conditions for the trial plants. The damage to the test plants is scored visually after a test period of 3 weeks by comparison with untreated controls (herbicidal activity in percent (%): 100% activity=the plants have died, 0% activity=like control plants). […] The tables below illustrate, in an illustrative manner, the post-emergence herbicidal action of the compounds of the invention, the herbicidal activity being stated in percent.

ECHCG [3] = assay: Pre-emergence herbicidal action against ECHCG; type: in vivo, Echinochloa crus-galli; settings: 80 g/ha
How it was run: as §2

VIOTR [4] = assay: Pre-emergence herbicidal action against VIOTR; type: in vivo, Viola tricolor
How it was run: as §2

AMARE [5] = assay: Pre-emergence herbicidal action against AMARE; type: in vivo, Amaranthus retroflexus
How it was run: as §2

SETVI [6] = assay: Post-emergence herbicidal action against SETVI; type: in vivo, Setaria viridis; settings: dosage 20 g/ha
How it was run: as §1

ALOMY [7] = assay: Pre-emergence herbicidal action against ALOMY; type: in vivo, Alopecurus myosuroides; settings: 80 g/ha, pre-emergence, scored visually after 3 weeks vs untreated controls (100% = plants have died, 0% = like control plants)
How it was run: as §2

VIOTR [8] = assay: Post-emergence herbicidal action against VIOTR; type: in vivo, Viola tricolor; settings: 20 g/ha
How it was run: as §1

ABUTH [9] = assay: Pre-emergence herbicidal action against ABUTH; type: in vivo, Abutilon theophrasti; settings: for Pre-emergence action against ABUTH (herbicidal activity): 80 g/ha, scored visually after 3 weeks vs untreated controls (100% = plants have died, 0% = like control plants); for Pre-emergence action against ABUTH (herbicidal activity in percent): dosage 20 g/ha, scored visually after 3 weeks vs untreated controls, 100% = plants have died, 0% = like control plants
How it was run: as §2

ECHCG [10] = assay: Post-emergence herbicidal action against ECHCG; type: in vivo, Echinochloa crus-galli
How it was run: as §1

MATIN [11] = assay: Post-emergence herbicidal action against MATIN; type: in vivo, Matricaria inodora; settings: dosage 20 g/ha
How it was run: as §1

VERPE [12] = assay: Pre-emergence herbicidal action against VERPE; type: in vivo, Veronica persica; settings: dosage 80 g/ha
How it was run: as §2

ABUTH [13] = assay: Post-emergence herbicidal action against ABUTH; type: in vivo, Abutilon theophrasti; settings: visual assessment about 3 weeks after treatment vs untreated controls
How it was run: as §1

DIGSA [14] = assay: Pre-emergence herbicidal action against DIGSA; type: in vivo, Digitaria sanguinalis
How it was run: as §2

SETVI [15] = assay: Pre-emergence herbicidal action against SETVI; type: in vivo, Setaria viridis
How it was run: as §2

AMARE [16] = assay: Post-emergence herbicidal action against AMARE; type: in vivo, Amaranthus retroflexus; settings: 20 g/ha, visual assessment about 3 weeks after treatment, 100% = plants have died, 0% = like control plants
How it was run: as §1

ALOMY [17] = assay: Post-emergence herbicidal action against ALOMY; type: in vivo, Alopecurus myosuroides; settings: dosage 20 g/ha, visual assessment about 3 weeks after treatment vs untreated controls
How it was run: as §1

DIGSA [18] = assay: Post-emergence herbicidal action against DIGSA; type: in vivo, Digitaria sanguinalis; settings: 20 g/ha
How it was run: as §1

AVEFA = assay: Pre-emergence herbicidal action against AVEFA; type: in vivo, Avena fatua; settings: 80 g/ha, pre-emergence
How it was run: as §2

[19] = 20 g/ha, scored visually after 3 weeks vs untreated controls, 100% = plants have died, 0% = like control plants
[20] = 80 g/ha, scored visually after 3 weeks vs untreated controls (100% = plants have died, 0% = like control plants)

CCn1nnnc1NC(=O)c1ccc(C(F)F)c(C(=O)NC)c1OC [Example 2-72]
90%: Pre-emergence action against VERPE in % (VERPE [12])
80%: Post-emergence action against PHBPU in % (PHBPU) | Post-emergence action against VERPE in % (VERPE [2]) | Pre-emergence action against POLCO in % (POLCO; dosage 20 g/ha) | Pre-emergence action against POLCO in % (POLCO; dosage 80 g/ha) | Post-emergence action against SETVI in % (SETVI [6]) | Pre-emergence action against ALOMY (herbicidal activity) (ALOMY [7]) | Post-emergence action against VIOTR in % (VIOTR [8]) | Post-emergence action against ECHCG in % (ECHCG [10]; dosage 5 g/ha) | Post-emergence action against ECHCG in % (ECHCG [10]; dosage 20 g/ha) | Post-emergence action against MATIN in % (MATIN [11]) | Post-emergence action against ABUTH in % (ABUTH [13]; dosage 5 g/ha) | Post-emergence action against ABUTH in % (ABUTH [13]; dosage 20 g/ha)
100%: Pre-emergence action against MATIN in % (MATIN [1]; dosage 20 g/ha) | Pre-emergence action against MATIN in % (MATIN [1]; dosage 80 g/ha) | Pre-emergence action against ECHCG in % (ECHCG [3]) | Pre-emergence action against VIOTR in % (VIOTR [4]; dosage 20 g/ha) | Pre-emergence action against VIOTR in % (VIOTR [4]; dosage 80 g/ha) | Pre-emergence action against AMARE in % (AMARE [5]; [19]) | Pre-emergence action against AMARE in % (AMARE [5]; [20]) | Pre-emergence action against ABUTH (herbicidal activity) (ABUTH [9]) | Pre-emergence action against ABUTH (herbicidal activity in percent) (ABUTH [9]) | Pre-emergence action against DIGSA in % (DIGSA [14]; dosage 20 g/ha) | Pre-emergence action against DIGSA in % (DIGSA [14]; dosage 80 g/ha) | Pre-emergence action against SETVI in % (SETVI [15]; dosage 80 g/ha)

CCNC(=O)c1c(C(F)F)ccc(C(=O)Nc2nnc(C)o2)c1Br [Example 6-165]
90%: Pre-emergence action against VIOTR in % (VIOTR [4]; dosage 80 g/ha) | Post-emergence action against ECHCG in % (ECHCG [10]; dosage 5 g/ha) | Post-emergence action against DIGSA (DIGSA [18]) | Post-emergence action against ABUTH in % (ABUTH [13]; dosage 20 g/ha) | Pre-emergence action against DIGSA in % (DIGSA [14]; dosage 20 g/ha) | Pre-emergence action against SETVI in % (SETVI [15]; dosage 20 g/ha)
100%: Pre-emergence action against MATIN in % (MATIN [1]; dosage 80 g/ha) | Pre-emergence action against ECHCG in % (ECHCG [3]) | Pre-emergence action against AMARE in % (AMARE [5]; [19]) | Pre-emergence action against AMARE in % (AMARE [5]; [20]) | Pre-emergence action against ABUTH (herbicidal activity) (ABUTH [9]) | Post-emergence action against ECHCG in % (ECHCG [10]; dosage 20 g/ha) | Pre-emergence action against DIGSA in % (DIGSA [14]; dosage 80 g/ha) | Pre-emergence action against SETVI in % (SETVI [15]; dosage 80 g/ha)
80%: Pre-emergence action against MATIN in % (MATIN [1]; dosage 20 g/ha) | Post-emergence action at 20 g/ha against AMARE in % (AMARE [16]) | Pre-emergence action against POLCO in % (POLCO; dosage 80 g/ha) | Pre-emergence action against VIOTR in % (VIOTR [4]; dosage 20 g/ha) | Post-emergence action against SETVI in % (SETVI [6]) | Post-emergence action against ALOMY in % (ALOMY [17]) | Pre-emergence action against ALOMY (herbicidal activity) (ALOMY [7]) | Post-emergence action against VIOTR in % (VIOTR [8])

CCNC(=O)c1c(C(F)(F)F)ccc(C(=O)Nc2nnc(C)o2)c1CC [Example 6-211]
80%: Pre-emergence action against VIOTR in % (VIOTR [4]; dosage 80 g/ha) | Pre-emergence action against AVEFA in % (AVEFA) | Pre-emergence action against VERPE in % (VERPE [12]) | Post-emergence action against ABUTH in % (ABUTH [13]; dosage 5 g/ha)
90%: Pre-emergence action against MATIN in % (MATIN [1]; dosage 80 g/ha) | Post-emergence action at 20 g/ha against AMARE in % (AMARE [16]) | Pre-emergence action against POLCO in % (POLCO; dosage 80 g/ha) | Pre-emergence action against ALOMY (herbicidal activity) (ALOMY [7]) | Pre-emergence action against ABUTH (herbicidal activity in percent) (ABUTH [9]) | Post-emergence action against ECHCG in % (ECHCG [10]; dosage 20 g/ha) | Post-emergence action against ABUTH in % (ABUTH [13]; dosage 20 g/ha)
100%: Pre-emergence action against ECHCG in % (ECHCG [3]) | Pre-emergence action against AMARE in % (AMARE [5]; [19]) | Pre-emergence action against AMARE in % (AMARE [5]; [20]) | Pre-emergence action against ABUTH (herbicidal activity) (ABUTH [9]) | Pre-emergence action against SETVI in % (SETVI [15]; dosage 80 g/ha)
